The results in this text go back to patent US11767286B2, “Phenylpropionate compound, preparation method for same, and applications thereof” (SUZHOU PHARMAVAN CO., LTD, priority 2017, dated 2023).

The structures appear in SMILES notation. Read-outs that look alike come from different tables or passages of the source.

One series has as its system IL-1β. The series is described as follows: Inflammatory factor IL-1β in blood and brain tissues of rats with acute cerebral ischemia-reperfusion. In kind it is in vivo, SD rats. Conditions: 4 mg/kg iv 2 h after reperfusion; 4 h after administration; n=5. On the procedure:
(§1) Trial method: Effects on inflammatory factors and blood viscosity of rats with acute cerebral ischemia-reperfusion: 70 Male SD rats underwent an MACO surgery by a suture method, and after the surgery, alive rats were randomly grouped (into 7 groups, the number of successful animals in each group was guaranteed to be 6 to 8). Blood perfusion was recovered 2 h after MCAO, and corresponding trial medicaments were intravenously injected 2 h after blood reperfusion. 4 hours after the administration, blood was collected and the rats were sacrificed to take out brain tissues. The brain tissues and part of the blood were centrifuged to collect serum which was detected for inflammatory factors, and part of the blood was detected for blood viscosity by using a blood viscometer. Detected indicators: cerebral infarction area; inflammatory factors IL-1β and TNF-α; and blood viscosity.
(§2) Table 3 lists results of effects of phenylpropionate compounds (4 mg/kg) on inflammatory factors in blood and brain tissues of rats (n=5).

In series [1] the test system is platelet aggregation induced with a platelet activating factor. The series is described as follows: Maximum platelet aggregation rate of rabbits, induced with PAF. The following applies: rabbit plasma, 4 mg/kg as printed; for inhibition at 4 mg/kg: Oryctolagus cuniculus, Platelet, n=3, read-out: Inhibiton rate on Aggregation; for Maximum Aggregation Rate: n=3. In kind it is cell-based. The protocol: (§3) Effects on maximum platelet aggregation rate of rabbits: 3 Rabbits were anesthetized, and blood was collected from the heart to obtain 14 parts of plasma for each rabbit (1 ml per part of plasma). 7 Parts were induced with ADP to allow platelet aggregation, and 7 parts were induced with a platelet activating factor. After the induction, a solvent, positive control drug aspirin, and 5 samples to be trialed were separately added to the plasma, and maximum platelet aggregation rate was detected with a platelet aggregation meter. The trials were repeated 3 times, and an average was taken. Detected indicator: maximum platelet aggregation rate.
(§4) Table 4 lists results of effects of phenylpropionate compounds (4 mg/kg) on platelet aggregation rate of rabbits (n=3).

The next series relates to TNF-α. The series is described as follows: Inflammatory factor TNF-α in blood and brain tissues of rats with acute cerebral ischemia-reperfusion. Type of series: in vivo, SD rats. Conditions: 4 mg/kg iv 2 h after reperfusion; 4 h after administration; n=5. On the procedure: as §1, §2
Series [2] in a line: Distribution in brain: plasma and intracerebral concentrations after intravenous injection. In kind it is in vivo. Conditions: both sexes, rat, rats, 4 mg/kg iv; for Kp at 10 min / Kp at 60 min / Kp at 180 min: brain/plasma, read-out: Brain/Blood Concentration Ratio. The protocol:
In this example, Compounds A to E, D-bornyl ferulate, and D-tanshinol borneol ester were measured for distribution in brain. Structures of D-bornyl ferulate (Patent Application No.: 201510243181.5) and D-tanshinol borneol ester compounds are as follows:
Method for testing distribution in brain: 42 rats with a weight range of 200±20 g were taken. The rats were randomly divided into 7 groups, with 6 rats per group, half male and half female. Rats were fasted with free access to water for 12 h and then intravenously injected with 4 mg/kg of a compound. Rats in the 3 groups were sacrificed through femoral artery bleeding and collected for blood 10 min, 60 min, 180 min after administration, respectively. Brains were taken out, 0.2 g was weighted, and 1 mL of pure water was added for homogenizing. The blood samples and brain homogenate samples were stored at −20° C.
Distribution of Compounds A to E, and D-bornyl ferulate and D-tanshinol borneol ester compounds in brain: Data on concentrations of Compounds A to E, D-bornyl ferulate, and D-tanshinol borneol ester in plasma and intracerebral in rats intravenously injected with 4 mg/kg of Compounds A to E, D-bornyl ferulate, and D-tanshinol borneol ester are listed in Table 9.

Series [3] concerns rats with acute cerebral ischemia-reperfusion. The series is described as follows: Cerebral infarction area of rats with acute cerebral ischemia-reperfusion (MCAO, suture method). In kind it is in vivo, SD rats. Details: Cerebral Infarction Area: unit not given here. The following applies: n=5; for Cerebral Infarction Area: 4 mg/kg iv 2 h after reperfusion (2 h MCAO), sampled 4 h after administration; for inhibition in vivo at 4 mg/kg: Rattus norvegicus, 4 h, 4 mg/kg iv 2 h after reperfusion, vs solvent control, read-out: Percentage of Cerebral Infarction Area Reduction. The protocol: as §1
Table 1 lists results of effects of phenylpropionate compounds (4 mg/kg) on cerebral infarction area of rats with acute cerebral ischemia (n=5).

The test system of series [4] is SD rat model of focal ischemia-reperfusion. The series is described as follows: Dose-effect relationship in SD rat model of focal ischemia-reperfusion (MCAO). The following applies: 4.0 mg/kg, given 2 h after reperfusion, mean ± standard error; for Score of Symptoms of Neurological Deficits: 48 h, modified Bederson 5-point scale; for Infarction area: evaluated after 48 h. Type of series: in vivo, SD rats. On the procedure:
In this example, phenylpropionate compounds were studied for dose-effect relationship, with D-bornyl ferulate (administrated at 4.0 mg/kg) and D-tanshinol borneol ester (administrated at 4.0 mg/kg) as positive control drugs. Structures of D-bornyl ferulate (Patent Application No.: 201510243181.5) and D-tanshinol borneol ester compounds are as follows:
Trial method: A cerebral ischemia reperfusion model of middle cerebral artery occlusion (MCAO) was prepared by an internal carotid artery suture method. An animal was anesthetized with 10% chloral hydrate (3.6 mL/kg) and then fixed on an operating table in a supine position. Its skin was disinfected, and a midline incision was made on the neck. The right common carotid artery, external carotid artery, and internal carotid artery were separated, the vagus nerve was gently striped off, and the external carotid artery was ligated and cut. The common carotid artery was clamped at the proximal end. […] The nylon thread was advanced through the bifurcation of the common carotid artery into the internal carotid artery, and then was slowly inserted until there was slight resistance (about 20 mm from the bifurcation) to block all the blood supply to the middle cerebral artery. 2 h after cerebral ischemia, the nylon thread was gently pulled out to restore blood supply for reperfusion, and the neck skin was sutured and disinfected. The animal was put back in a cage and raised. During the modeling operation, animals with abnormal conditions due to anesthesia, surgery, etc. were excluded, and successfully modeled animals were randomly grouped. Schemes were set according to different trial doses, and drug treatment was given 2 h after cerebral ischemia-reperfusion. Death conditions were recorded every day after the surgery, and indicators were evaluated after 48 h. In the whole trial process, general conditions were observed, mainly including: death, coma, breathing, urine and feces traits, hair colors, mental status, vomiting and vomitus, bleeding, convulsion, spasm, etc. Abnormal animals due to unexpected factors were excluded. Finally, unblinding was conducted by a person who made blind trials.
Evaluated indicator: (1) Evaluation of symptoms of neurological deficits: The symptoms of neurological deficits were evaluated by using a modified Bederson 5-point scale. A single-blind method was used for evaluating the symptoms of neurological deficits in rats with brain trauma. That is, a trial designer marked animals in accordance with groups, and an experimenter who scored the symptoms of neurological deficits had no knowledge of how the animals were grouped. After scoring was completed, the scorer submitted scoring results for various marks to the designer, and the designer performed unblinding to obtain scores of animals in each trial group. (2) Measurement of cerebral infarction area: A method reported in the literature was used. An animal was anesthetized with 10% chloral hydrate and decapitated to collect brain. The olfactory bulb, cerebellum and lower brain stem were removed. Blood stains on the surface of the brain were rinsed with normal saline, the residual water stains on the surface were absorbed, and the brain was placed at −80° C. for 7 min. After the brain was taken out, a coronal section was immediately made at downwards and vertical to the sight intersection plane, and brain slices were made every 2 mm backwards. Brain slices were placed in a TTC (20 g/L) dye solution prepared with 0.9% normal saline, and incubated at 37° C. for 90 min. Normal brain tissues were stained deep red, and ischemic brain tissues were pale-white. After rinsed with normal saline, the brain sections were quickly arranged in order from front to back, the residual water stains on the surface were absorbed to dryness, and pictures were taken. Image analysis software was used for statistics on the pictures. […]

Series [5] relates to rats with acute cerebral ischemia-reperfusion. The series is described as follows: Blood viscosity of rats with acute cerebral ischemia-reperfusion (blood viscometer). The arrangement: unit not given here. In kind it is in vivo, SD rats. Conditions: 4 mg/kg iv 2 h after reperfusion; blood 4 h after administration; n=5. The protocol: as §1
Table 2 lists results of effects of phenylpropionate compounds (4 mg/kg) on blood viscosity of rats (n=5).

The test system of series [6] is platelet aggregation induced with ADP. The series is described as follows: Maximum platelet aggregation rate of rabbits, induced with ADP. Type of series: cell-based. The following applies: rabbit plasma, 4 mg/kg as printed, n=3; for inhibition at 4 mg/kg: Oryctolagus cuniculus, Platelet. On the procedure: as §3, §4
The mark [7] stands for this setting: brain, read-out: Mean Intracerebral Concentration.
Setting [8] is: plasma, read-out: Mean Plasma Concentration.

Consider `COc1cc(/C=C/C(=O)O[C@H]2C[C@H]3CC[C@]2(C)C3(C)C)ccc1O` [D-bornyl ferulate, reference compound], for which the IL-1β with IL-1β turned out to be 64.8 ± 5.8 ng/L. Besides, in series [1], the inhibition at 4 mg/kg was 36.4% and the “Maximum Aggregation Rate” value is on record as 45.4 ± 2.64 %. This molecule also displayed a TNF-α in the series on TNF-α of 658 ± 23.6 ng/L. Besides, in series [2], the Kp at 10 min stood at 0.52, the Kp at 60 min worked out at 5 and the Kp at 180 min came to 5.8. Also, in series [2] (setting [7]), the concentration at 10 min turned out to be 1490 ± 219 ng/g, the concentration at 60 min turned out to be 701 ± 136 ng/g and the concentration at 180 min turned out to be 276 ± 81.3 ng/g. In series [2] (setting [8]), the concentration at 10 min came out at 2890 ± 671 ng/mL, the concentration at 60 min is 138 ± 55 ng/mL and the concentration at 180 min was 47.1 ± 21.6 ng/mL. Besides, in series [3], the “Cerebral Infarction Area” value was 21.7 ± 4.35 and the inhibition in vivo at 4 mg/kg is 40.9%. Moreover, in series [4], the “Score of Symptoms of Neurological Deficits” value is 1.94 ± 0.19 and the Infarction area turned out to be 21.68 ± 2.80 %. Besides, in series [5], the “Blood viscosity, High Shear” value came to 2.84 ± 0.323 and the “Blood viscosity, Low Shear” value came to 13.8 ± 0.574. In addition, in series [6], the inhibition at 4 mg/kg came to 46.5% and the “Maximum Aggregation Rate” value is 17.6 ± 4.59 %.
For the molecule `CC1(C)[C@@H]2CC[C@@]1(C)[C@@H](OC(=O)[C@H](O)Cc1ccc(O)c(O)c1)C2` [D-tanshinol borneol ester, reference compound], the IL-1β with IL-1β is recorded as 67.1 ± 8.8 ng/L. In series [1], the inhibition at 4 mg/kg amounted to 33.8% and the “Maximum Aggregation Rate” value was 47.3 ± 4.53 %. In the series on TNF-α, this molecule showed a TNF-α of 687 ± 35.4 ng/L. Further, in series [2], the Kp at 10 min was determined as 0.47, the Kp at 60 min is 2.6 and the Kp at 180 min turned out to be 3.4. Moreover, in series [2] (setting [7]), the concentration at 10 min came out at 1040 ± 168 ng/g, the concentration at 60 min was 644 ± 99.7 ng/g and the concentration at 180 min was 177 ± 35.2 ng/g. For the same molecule, in series [2] (setting [8]), the concentration at 10 min worked out at 2210 ± 546 ng/mL, the concentration at 60 min is 244 ± 62.4 ng/mL and the concentration at 180 min was found to be 52.8 ± 34.1 ng/mL. Moreover, in series [3], the “Cerebral Infarction Area” value is on record as 25.6 ± 4.65 and the inhibition in vivo at 4 mg/kg stood at 30.2%. In series [4], the “Score of Symptoms of Neurological Deficits” value amounted to 1.98 ± 0.17 and the Infarction area is given as 22.76 ± 2.42 %. Further, in series [5], the “Blood viscosity, High Shear” value amounted to 2.76 ± 0.134 and the “Blood viscosity, Low Shear” value was 14.1 ± 0.658. Also, in series [6], the inhibition at 4 mg/kg is 43.8% and the “Maximum Aggregation Rate” value was found to be 18.5 ± 4.36 %.
